Data: patent US6656916B1, “Glucocorticoid enhancement of gene expression” (Research Development Foundation, priority 1995, dated 2003)
Entries after “also recorded” stand apart in the source; their conditions may differ. Where two headings read alike, the source gives them in different places.

Columns and labels:
A549 cells [1] = test: β-galactosidase (CPRG microtiter) activity in A549 cells transfected with reporter plasmid-cationic lipid; type: cell-based, human; conditions: for β-gal expression over untreated cells: 10^−6 M beclomethasone 4 hours; for βgal activity versus medium treated, transfected cells: then beclomethasone 4 hours prior to transfection
A549 cells [2] = test: X-gal staining, count of stained transfected A549 cells; type: cell-based, human; conditions: BEC 10^−6 M 4 hours, DNA-DMRIE/DOPE, 48 hours, stained cells in 1×1 cm^2 area
Experimental: All transfections were performed in OPTIMEM (GIBCO-Life Technologies). One μg of pCMVβ gal was combined with 4 μg of DMRIE/DOPE or 3 μg of DOSPA/DOPE in 1 ml of OPTIMEM and incubated for 15 minutes at room temperature. Cell monolayers were washed twice in serum-free medium then overlaid with 1 ml of transfection mixture and incubated for 2.5 hours at 37° C. in a humidified, 5% CO2. DNA-liposome overlay was replaced with DMEM plus 10% FBS and cells were incubated for 48 hours. Cell lysates were harvested and assayed for total protein according to the manufacturer's instructions (BCA assay, Pierce Chemical, Rockfield, Ill.) and β -galactosidase activity was determined using a Chlorophenored-β-D-galactopyranoside colorimetric microtiter assay as described (CPRG) assay (Boerhinger-Mannheim, Germany). […]
For stained cells, duplicate cell cultures of A549 cells were treated for 4 hours with beclomethasone dipropionate or medium only, then transfected with pCMVβgal using DMRIE/DOPE. At 48 hours, one set of cultures was lysed and βgal activity determined while the other set was fixed with neutral buffered formalin and stained with β-gal (duplicate wells for each treatment). Stained cells were counted in a 1×1 cm^2 area.

primary rat lung cells = test: β-gal activity in primary rat lung cells transfected with pCMVβgal-DMRIE/DOPE; type: cell-based
A549 cells [3] = test: 3H-thymidine-labeled pCMVβgal plasmid-lipid uptake; type: cell-based, human; conditions: several concentrations, 4 hours pretreatment, uptake at 2 hours
Experimental: A549 cells were pretreated with medium or beclomethasone at the dose specified for 4 hours, then transfected with ^3H-thymidine-labeled pCMVβgal. Two hours post-transfection, cells were washed, lightly trypsinized and pelleted by centrifugation. Pellets were then lysed, resuspended, and liquid scintillation cocktail added. ^3H-thymidine-labeled pCMVβgal uptake (CPM) per sample was determined. Results represent the average and standard deviation from 4 experiments and each experimental point was performed in duplicate. Fold-change=CPM beclomethasone-pretreated/CPM medium pretreated.
^3H-thymidine-labeled pCMVβgal plasmid was prepared by adding 1 mCi of ^3H-TdR (^3H-TdR, 74GBq/mmol, Amersham) to a 25 ml overnight culture of pCMVβgal-transformed DH5α strain of Escherichia coli. Labeled plasmid was isolated using Qiagen tip columns (100 μg size, Chatsworth, Calif.) per manufacturer's instructions. Saturable binding of the labeled DNA was determined as follows. Serial dilutions, from 1 μg-0.125 μg of ^3-H-TdR-labeled DNA was added to A549 cells and incubated for either 2, 6 or 24 hours. […] Pellets were lysed in 100 μl of lysis buffer (0.1 M TRIS and 0.5% Triton X-100), liquid scintillation cocktail added (BCS, Amersham) and ^3H-plasmid label quantitated by liquid scintillation. […] Uptake was determined as described above.

A549 cells [4] = test: β-gal mRNA levels by RNA-specific PCR (RS-PCR); type: cell-based, human
Experimental: A549 cells were treated with 10^-6 M beclomethasone or medium for 4 hours. Cells were transfected with 1 μg/ml pCMVβgal plus 4 μg/ml DMRIE/DOPE. At times specified (hours) after transfection, total RNA was harvested, converted to cDNA and specific βgal messages amplified by RS-PCR as described below. RS-PCR samples were resolved on a 1% TAE agarose gel and transferred to nylon filter. Filter was hybridized to a ^32P-labeled βgal probe. Filter was analyzed by betascanner and bands of the appropriate size counted. Fold-change=βgal CPM in beclomethasone treated cells/βgal. CPM in medium-treated cells. […] Briefly, cells were pre-treated with beclomethasone at 10^-6 M and transfected as described above. After the incubation was complete, cells were lysed using acidified guanidinium isothiocyante (Fluka Chemical), containing 0.75 M sodium citrate and 1% sarkosyl. RNA was harvested using the RNAeasy system (Qiagen, Chatsworth, Calif.). Total RNA quantity was determined by A260 and, 0.5 μg of the RNA was run on a gel to determine RNA integrity. Using 0.3 μg of total RNA, cDNAs were prepared using MMLV reverse transcriptase (GIBCO, Life Technologies), substituting primer […] […] One μl of cDNA was spotted to duplicate nitrocellulose filters and counted by LSC. […] Blots were evaluated on a Betagen betascanner and CPM for bands of the correct size were determined.

[5] = various doses, 4 hours prior to transfection with pCMVβ gal or pSVβ using DMRIE/DOPE

## C[C@@H]1C[C@@H]([C@H](O)CC2CC(=O)NC(=O)C2)C(=O)[C@@H](C)C1 [CHX, cycloheximide]
A549 cells [1]; CHX 10 μg/ml, 30 minutes + 4 hours
  β-gal activity in control cells with protein synthesis inhibitor: moderately suppressed the β-gal activity

## CC1(C)O[C@@H]2C[C@H]3[C@@H]4C[C@H](F)C5=CC(=O)C=C[C@]5(C)[C@H]4[C@@H](O)C[C@]3(C)[C@]2(C(=O)CO)O1 [FLUN, flunisolide]
A549 cells [1]; 10^−6 M, 4 hours prior to transfection
  Degree of β-gal enhancement compared with the other glucocorticoids: less of an enhancing effect
A549 cells [1]; 10^−6 M, 4 hours prior to transfection, pCMVβgal-DMRIE/DOPE
  Enhancement of β-gal activity by other topical glucocorticoids (FIG. 2B): enhanced β-gal activity

## CCC(=O)OCC(=O)[C@@]1(OC(=O)CC)[C@@H](C)C[C@H]2[C@@H]3CCC4=CC(=O)C=C[C@]4(C)[C@@]3(Cl)[C@@H](O)C[C@@]21C [beclomethasone, beclomethasone dipropionate]
A549 cells [2]
  FOLD-CHANGE, X-GAL STAINING: 1.5 ± 0.7
Primary rat lung cells; 10^−6 M
  Effectiveness of 10^−6 M compared with 10^−7 M: less effective than was 10^−7 M
Primary rat lung cells; 4 hours beclomethasone + 4 hours lipopolysacchride
  βgal activity, beclomethasone pretreatment followed by lipopolysacchride stimulation: restored βgal activity to that of the medium pre-treated cells
Primary rat lung cells; 4 hours pretreatment
  Concentration of optimum enhancement in βgal activity: 10^−7 M
Primary rat lung cells; 4 hours pretreatment, pCMVβgal-DMRIE/DOPE, composite of several rat cell preparations
  Enhancement of β-gal activity: 2 fold
A549 cells [3]
  Uptake of radiolabeled plasmid: does not appear to enhance uptake
A549 cells [1]; 5×10^−7 M to 10^−6 M, 4 hours prior to transfection, pCMVβgal-DMRIE/DOPE
  Enhancement of β-gal activity: 2-4 fold
A549 cells [1]; 10^−6 M
  Minimum beclomethasone exposure required to see enhanced β-gal transfection: 3 to 4 h
A549 cells [1]; then IL-1β 4 hours prior to transfection
  β-gal expression over untreated cells: 2 fold
A549 cells [1]; then lipopolysacchride 4 hours prior to transfection
  β-gal expression over untreated cells: 2 fold
A549 cells [1]; 10^−6 M beclomethasone + CHX 10 μg/ml, 4 hours
  Beclomethasone-mediated enhancement of β-gal activity in presence of CHX: even greater in the presence of CHX
A549 cells [1]; 10^−6 M beclomethasone only, 4 hours
  Enhancement of β-gal activity (FIG. 3): 2.5 fold
A549 cells [1]; 10^−6 M, remained maximal for the 24 hours monitored
  Pre-treatment time at which enhanced β-gal activity was maximized: ≤ 8 h
A549 cells [1]; 10^−7 M, 4 hours prior to transfection, pCMVβgal-DMRIE/DOPE
  Enhancement of β-gal activity: only slight enhancement
A549 cells [1]; BEC 10^−6 M 4 hours, DNA-DMRIE/DOPE, 48 hours
  FOLD-CHANGE, βGAL ACTIVITY: 3
A549 cells [1]; IL-1β 4 hours first
  βgal activity versus medium treated, transfected cells: augmented βgal activity above what was seen in medium treated, transfected cells
A549 cells [1]; alternate lipid, promoter or reporter
  Concentration producing maximal enhanced reporter gene activity: 5×10^−7 to 10^−6 M
A549 cells [1]; lipopolysacchride 4 hours first
  βgal activity versus medium treated, transfected cells: augmented βgal activity above what was seen in medium treated, transfected cells
A549 cells [1]; pCMVβgal and DOSPA/DOPE (FIG. 5A)
  β-gal expression with alternate cationic lipid: also enhanced
A549 cells [1]; pSVβ-DMRIE/DOPE (FIG. 5B)
  β-gal enhancement with SV40 promoter vector: enhancement was observed
A549 cells [4]; T=3 and T=24 hours, 10^−6 M
  Steady-state β-gal mRNA levels versus medium-treated cells: definite increase in steady-state m RNA levels
A549 cells [4]; T=2 hours after transfection, 10^−6 M 4 hours pretreatment
  β-gal mRNA induction: 18 fold

## CC(C)CCC[C@@H](C)[C@H]1CC[C@H]2[C@@H]3CC=C4C[C@@H](O)CC[C@]4(C)[C@H]3CC[C@]12C [cholesterol]
A549 cells [1]; [5]
  Enhancement of β-gal / reporter gene expression by other steroids: Enhancement of β-gal was only seen in the beclomethasone treated cells; also recorded: did not enhance reporter gene expression

## C[C@]12CC[C@@H]3c4ccc(O)cc4CC[C@H]3[C@@H]1CC[C@@H]2O [estrogen, estradiol]
A549 cells [1]
  Enhancement of β-gal / reporter gene expression by other steroids: Enhancement of β-gal was only seen in the beclomethasone treated cells; also recorded: did not enhance reporter gene expression

## CC(=O)[C@H]1CC[C@H]2[C@@H]3CCC4=CC(=O)CC[C@]4(C)[C@H]3CC[C@]12C [progesterone]
A549 cells [1]; [5]
  Enhancement of β-gal / reporter gene expression by other steroids: Enhancement of β-gal was only seen in the beclomethasone treated cells; also recorded: did not enhance reporter gene expression

## Interleukin-1β [IL-1β]
A549 cells [1]; 100 U/ml IL-1β or 0.5 μg/ml lipopolysacchride for 4 hours before transfection with pCMVβgal-DMRIE/DOPE
  β-gal activity relative to medium treated cells: decreased β-gal activity significantly; also recorded: suppressed the degree of β-gal expression

## cyclosporine A
A549 cells [1]; cells pre-treated with cyclosporine A, cell type not stated
  Reversal/enhancement of reporter gene expression by another immunosuppressant: this effect was not seen; also recorded: the effect was not seen
